Where two headings read alike, the source gives them in different places.
What was measured:
[1] = test system: HXBc2-YU2 Chimeras (CCR5-tropic); assay: Viral infection assay, HXBc2-YU2 chimeras (CCR5-tropic); assay type: cell-based, HIV-1
Experimental: (§1) Production of recombinant HIV-1 expressing luciferase. […] After 48 hours, the supernatant was collected, buffered with 50 mM Hepes pH 7.4 (final concentration) and centrifuged for 5 minutes at 750×g and 4° C. The virus-containing supernatant was used directly or frozen at −80° C.
(§2) Viral infection assay. Each test compound was serially diluted in DMSO in a 96-well B&W isoplate (PerkinElmer, Boston, Mass.) using an HP D300 Digital Dispenser, to a final volume of 450 nl. DMSO was used as a control. Viruses pseudotyped with a specific Env were added to each well and incubated briefly at room temperature. Cf2Th-CD4/CCR5 cells were detached with StemPro Accutase Cell Dissociation Reagent (Invitrogen, cat #A11105-01), washed once, and 5000 cells were added to each well. […] Following incubation, the medium was aspirated and cells were lysed with 30 μl of Passive Lysis Buffer (Promega, cat #E1941). The activity of the firefly luciferase, which was used as a reporter protein in the system, was measured with a Centro LB 960 luminometer (Berthold Technologies, Oak Ridge, Tenn.). One hundred microliters of assay buffer (15 mM MgSO4, 15 mM KH2PO4/K2HPO4 pH 7.8, 1 mM ATP and 1 mM DTT) was injected to each well, followed by a 50 μl injection of 1 mM Dluciferin potassium salt (BD Pharmingen, San Jose, Calif.); luminescence was measured for 2 sec. […]

[2] = test system: all CCR5-using HIV-1 isolates; assay: Viral infection assay, panel of CCR5-using HIV-1 isolates; assay type: cell-based; settings: Cf2Th-CD4/CCR5 cells
Experimental: as §1, §2

HIV-2OC1 = assay: Viral infection assay, HIV-2 Env; assay type: cell-based; settings: virus with HIV-2OC1 Env
Experimental: as §1, §2

CEM #21 cells = assay: Viability assay, CEM#21 target cells; assay type: cell-based
Experimental: (§3) H-JRFL#1336 (effector) and H-Fluc4 (control) cells were grown in DMEM containing 10% FBS, 100 μg/ml streptomycin, 100 units/ml penicillin, 200 μg/ml G418, 1 μg/ml puromycin and 2 μg/ml doxycycline. H-JRFL#13 cells carry an HIV-1JR-FL env gene that is induced by growing the cells in the absence of doxycycline (Tet-Off expression system). H-Fluc4 cells, which carry a firefly luciferase gene that is induced in the absence of doxycycline, were used as specificity controls. Both cell lines were derived from HeLa cells and constitutively express the tetracycline-regulated transactivator (Tet-Off expression system). CEM#21 target cells were grown in RPMI containing 10% FBS, 100 μg/ml streptomycin, 100 units/ml penicillin and 1 μg/ml puromycin. […]
Viability Assay. […] The plate was equilibrated to room temperature, 15 μl of CellTiterGlo (Promega) was added to each well and luminescence was measured as described above. […] 30 μl (Cf2Th cells) or 100 μl (PBMC) of CellTiterGlo was added and luminescence was measured as described above.

[3] = test system: cell-cell fusion mediated by HIV-1JR-FL and HIV-1ADS Envs; assay: Cell-cell fusion assay; assay type: cell-based
Experimental: as §3, with “system).” for “system). CEM#21 target cells were grown in RPMI containing 10% FBS, 100 μg/ml streptomycin, 100 units/ml penicillin and 1 μg/ml puromycin.”
H-JRFL#13 or H-FLuc4 cells were washed thrice, detached with StemPro Accutase, centrifuged at 200×g for 6 minutes at 10° C. and seeded in DMEM containing 10% tetracycline-approved FBS, 100 μg/ml streptomycin, 100 units/ml penicillin, 100 μg/ml G418, 1 μg/ml puromycin and without Phenol Red. […] Firefly luciferase activity was measured using an EnVision Multilabel Plate Reader (PerkinElmer, Boston, Mass.). […]
To identify new molecules that potentially affect HIV-1 entry, a cell-cell fusion assay that mimics the entry of HIV-1 into cells was established (FIG. 1a). The assay uses a firefly luciferase (F-luc) readout to measure the fusion of HeLa effector cells that express the Envs from a primary HIV-1 strain and target cells coexpressing the CD4 and CCR5 receptors. […]

With `O=C(N/N=C/c1ccc(O)cc1)Nc1cccc2nsnc12` [Compound 18A] the IC50 ([1]; HXBc2 (YU2 V3) chimera) was 20.2 ± 2.2 µM, the IC50 ([1]; HXBc2 (YU2 V123) chimera) was 12.5 ± 1.6 µM and the IC50 ([2]; read-out: IC50 values of the majority (75%) of CCR5-using HIV-1 isolates) was < 6 µM. For the same compound, the IC50 ([2]; read-out: average IC50 for all CCR5-using HIV-1 isolates) was 5.7 µM, the inhibition of infection (HIV-2OC1) was “significantly less potent” and the CC50 (CEM #21 cells) was 26.6 ± 2.1 µM. For the same compound, the cell-cell fusion [3] was “specifically inhibited cell-cell fusion”.
